Laboratory results as given in ChEMBL document CHEMBL1153542, “RNase H active site inhibitors of human immunodeficiency virus type 1 reverse transcriptase: design, biochemical activity, and structural information” (J Med Chem, 2009).
Activity calls are given as the source filed them. No cut-off for these calls is given here.

Key:
[1] = tested on: Human immunodeficiency virus; assay: Antiviral activity against HIV infected in human MT4 cells up to 100 uM by multicycle infectivity assay; type: functional, organism-based
Ribonuclease H1 = molecular target: T1, Ribonuclease H1 (Homo sapiens, UniProt O60930); assay: Inhibition of human RNase H assessed as substrate cleavage by fluorescence assay
T1 sequence (O60930 whole entry): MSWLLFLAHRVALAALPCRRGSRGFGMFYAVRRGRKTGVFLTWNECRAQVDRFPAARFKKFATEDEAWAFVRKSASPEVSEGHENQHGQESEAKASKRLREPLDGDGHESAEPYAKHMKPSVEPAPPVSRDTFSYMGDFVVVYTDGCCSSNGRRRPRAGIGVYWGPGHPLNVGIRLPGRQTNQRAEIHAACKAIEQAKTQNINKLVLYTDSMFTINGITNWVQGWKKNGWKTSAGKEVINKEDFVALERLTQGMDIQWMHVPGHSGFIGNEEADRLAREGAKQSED

[2] = molecular target: Ribonuclease H1 (Homo sapiens) (UniProt O60930); assay: Inhibition of human recombinant ribonuclease H1 in presence of Mg2+

Row | Compound | Activity [1] | IC50 (Ribonuclease H1) [µM] | IC50 [2] [µM]
1 | O=C(O)c1nc(Cc2ccc(Cl)c(Cl)c2)nc(O)c1O | inactive |  | 
2 | O=c1[nH]c2ccccc2c(=O)n1O | inactive | 5.9 | 
3 | O=C(O)c1nc(Cc2ccccc2)nc(O)c1O | inactive |  | 
4 | COC(=O)c1nc(Cc2ccccc2)nc(O)c1O | inactive |  | 
5 | O=C(O)c1nc(Cc2c(Br)sc3ccc(Cl)cc23)nc(O)c1O | inactive |  | 
6 | O=C(O)c1nc(CCc2ccccc2)nc(O)c1O | inactive |  | 
7 | O=C(O)c1nc(-c2ccccc2)nc(O)c1O | inactive |  | > 100
8 | COc1ccc(Cc2nc(O)c(O)c(C(=O)O)n2)cc1Br | inactive |  | 
